Our source for the IC50 values is US9266876B2 (Actelion Pharmaceuticals Ltd., priority 2012, dated 2016).

One assay concerns the target human CXCR3A (Homo sapiens (Human), UniProt P49682). The assay can be described thus: FLIPR assay. Format: cell-based. As to conditions: CHO-K1 cells expressing the human CXCR3A coupled to Galpha(16); CXCL10 agonist 20 nM; Fluo-4-AM fluorescence; mean values if determined several times. A digest of the protocol:
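CHO-K1 cells expressing CXCR3A coupled to Gα16 were loaded with Fluo-4-AM for 1 h in Hepes-buffered HBSS, pH 7.4, with 5 mM probenecid. Compound dilutions were added on the FLIPR, followed by CXCL10 (added as a 20 nM solution). Baseline-subtracted peak fluorescence was fitted to a single-site curve for IC50.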

A further assay deals with CXCR3 (Homo sapiens (Human), UniProt P49682). The assay can be described thus: Receptor internalization assay. Type of assay: cell-based. As to conditions: human whole blood; final CXCL10 concentration 9 nM; 30 min 37° C.; CXCR3 cell surface expression on CD3 positive cells, flow cytometer; read-out: Internalization IC50. A digest of the protocol:
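In human whole blood, compounds were incubated with CXCL10 (9 nM final) for 30 min at 37 °C to drive receptor internalization, then stained with anti-CXCR3/CD3 antibodies and lysed of red cells. Flow cytometry measured mean surface CXCR3 fluorescence on CD3+ cells, and IC50 came from single-site dose-response fits.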

Sequence of CXCR3 (P49682 whole entry): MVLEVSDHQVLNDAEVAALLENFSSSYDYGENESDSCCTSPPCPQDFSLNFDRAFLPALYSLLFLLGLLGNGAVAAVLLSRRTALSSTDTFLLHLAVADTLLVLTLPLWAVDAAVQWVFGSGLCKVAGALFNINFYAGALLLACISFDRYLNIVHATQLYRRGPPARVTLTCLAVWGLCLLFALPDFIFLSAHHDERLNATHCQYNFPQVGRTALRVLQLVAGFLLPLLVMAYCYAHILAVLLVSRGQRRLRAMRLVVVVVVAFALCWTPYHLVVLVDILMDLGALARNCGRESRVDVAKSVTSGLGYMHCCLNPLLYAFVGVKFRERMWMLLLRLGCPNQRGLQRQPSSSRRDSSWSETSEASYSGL
Sequence of human CXCR3A (P49682 whole entry): as above

As for `Cc1nn(CC(=O)N2CCN(c3sc(C(F)(F)F)nc3-c3nc4ccccc4[nH]3)C[C@H]2C)cc1CN(C)C` [Example 211, 1-{(R)-4-[4-(1H-Benzoimidazol-2-yl)-2-trifluoromethyl-thiazol-5-yl]-2-methyl-piperazin-1-yl}-2-(4-dimethylaminomethyl-3-methyl-pyrazol-1-yl)-ethanone], the figures for the IC50 on human CXCR3A and at CXCR3 were 1 nM and 227 nM, respectively.
Take `Cc1ncnn1CC(=O)N1CCN(c2sc(C(F)(F)F)nc2-c2nc3ccccc3[nH]2)C[C@H]1C` [Example 212, 1-{(R)-4-[4-(1H-Benzoimidazol-2-yl)-2-trifluoromethyl-thiazol-5-yl]-2-methyl-piperazin-1-yl}-2-(5-methyl-[1,2,4]triazol-1-yl)-ethanone]: the IC50 at human CXCR3A was found to be 4 nM; at CXCR3, 737 nM.
For the compound `Cc1ncn(CC(=O)N2CCN(c3sc(C(F)(F)F)nc3-c3nc4ccccc4[nH]3)C[C@H]2C)n1` [Example 213, 1-{(R)-4-[4-(1H-Benzoimidazol-2-yl)-2-trifluoromethyl-thiazol-5-yl]-2-methyl-piperazin-1-yl}-2-(3-methyl-[1,2,4]triazol-1-yl)-ethanone], the concentration for half-maximal inhibition (IC50) is 1 nM at human CXCR3A and 373 nM at CXCR3.
Taken in the same sequence, the figures for `Cc1nn(CC(=O)N2CCN(c3sc(C(F)(F)F)nc3-c3nc4ccccc4[nH]3)C[C@H]2C)c(C)c1CN(C)C` [Example 214, 1-{(R)-4-[4-(1H-Benzoimidazol-2-yl)-2-trifluoromethyl-thiazol-5-yl]-2-methyl-piperazin-1-yl}-2-(4-dimethylaminomethyl-3,5-dimethyl-pyrazol-1-yl)-ethanone] were 2 nM and 72 nM.
Taken in the same sequence, the figures for `C[C@@H]1CN(c2sc(C(F)(F)F)nc2-c2nc3ccccc3[nH]2)CCN1C(=O)Cn1cc2c(n1)CCN(C)C2` [Example 215, 1-{(R)-4-[4-(1H-Benzoimidazol-2-yl)-2-trifluoromethyl-thiazol-5-yl]-2-methyl-piperazin-1-yl}-2-(5-methyl-4,5,6,7-tetrahydro-pyrazolo[4,3-c]pyridin-2-yl)-ethanone] were 2 nM and 271 nM.
Taken in the same sequence, the figures for `C[C@@H]1CN(c2sc(C(F)(F)F)nc2-c2nc3ccccc3[nH]2)CCN1C(=O)Cn1ncc2c1CCN(C)C2` [Example 216, 1-{(R)-4-[4-(1H-Benzoimidazol-2-yl)-2-trifluoromethyl-thiazol-5-yl]-2-methyl-piperazin-1-yl}-2-(5-methyl-4,5,6,7-tetrahydro-pyrazolo[4,3-c]pyridin-1-yl)-ethanone] were 2 nM and 90 nM.
As to `C[C@@H]1CN(c2sc(C(F)(F)F)nc2-c2nc3ccccc3[nH]2)CCN1C(=O)CN1CCc2[nH]ncc2C1` [Example 217, 1-{(R)-4-[4-(1H-Benzoimidazol-2-yl)-2-trifluoromethyl-thiazol-5-yl]-2-methyl-piperazin-1-yl}-2-(1,4,6,7-tetrahydro-pyrazolo[4,3-c]pyridin-5-yl)-ethanone], the half-maximal inhibitory concentration (IC50) was 21 nM at human CXCR3A and 5010 nM on CXCR3.
Taken in the same sequence, the figures for `Cc1nc(CN(C)C)nn1CC(=O)N1CCN(c2sc(C(F)(F)F)nc2-c2nc3ccccc3[nH]2)C[C@H]1C` [Example 218, 1-{(R)-4-[4-(1H-Benzoimidazol-2-yl)-2-trifluoromethyl-thiazol-5-yl]-2-methyl-piperazin-1-yl}-2-(3-dimethylaminomethyl-5-methyl-[1,2,4]triazol-1-yl)-ethanone] were 8 nM and 540 nM.
In the case of `Cc1cc(CC(=O)N2CCN(c3sc(C(F)(F)F)nc3-c3nc4ccccc4[nH]3)C[C@H]2C)cc(C)n1` [Example 219], the concentration for half-maximal inhibition (IC50) was 4 nM on human CXCR3A and 1460 nM at CXCR3.
Taken in the same sequence, the figures for `Cc1cc(C)nc(CC(=O)N2CCN(c3sc(C(F)(F)F)nc3-c3nc4ccccc4[nH]3)C[C@H]2C)c1` [Example 220] were 19 nM and 2620 nM.
Taken in the same sequence, the figures for `C[C@@H]1CN(c2sc(C(F)(F)F)nc2-c2nc3ccccc3[nH]2)CCN1C(=O)Cn1cc(C2CCNCC2)cn1` [Example 221, 1-{(R)-4-[4-(1H-Benzoimidazol-2-yl)-2-trifluoromethyl-thiazol-5-yl]-2-methyl-piperazin-1-yl}-2-(4-piperidin-4-yl-pyrazol-1-yl)-ethanone] were 6 nM and 1090 nM.
Taken in the same sequence, the figures for `C[C@@H]1CN(c2sc(C(F)(F)F)nc2-c2nc3ccccc3[nH]2)CCN1C(=O)Cn1cc(C2CCN(C)CC2)cn1` [Example 222, 1-{(R)-4-[4-(1H-Benzoimidazol-2-yl)-2-trifluoromethyl-thiazol-5-yl]-2-methyl-piperazin-1-yl}-2-[4-(1-methyl-piperidin-4-yl)-pyrazol-1-yl]-ethanone] were 16 nM and 1500 nM.
Take `C[C@@H]1CN(c2sc(CN(C)C)nc2-c2nc3ccccc3[nH]2)CCN1C(=O)Cn1cnc2cccnc21` [Example 223, 1-{(R)-4-[4-(1H-Benzoimidazol-2-yl)-2-dimethylaminomethyl-thiazol-5-yl]-2-methyl-piperazin-1-yl}-2-imidazo[4,5-b]pyridin-3-yl-ethanone]: the IC50 was 27 nM at human CXCR3A and 1130 nM at CXCR3.
Taken in the same sequence, the figures for `C[C@@H]1CN(c2sc(CO)nc2-c2nc3ccccc3[nH]2)CCN1C(=O)Cn1cnc2cccnc21` [Example 225, 1-{(R)-4-[4-(1H-Benzoimidazol-2-yl)-2-hydroxymethyl-thiazol-5-yl]-2-methyl-piperazin-1-yl}-2-imidazo[4,5-b]pyridin-3-yl-ethanone] were 54 nM and 3460 nM.
Taken in the same sequence, the figures for `O=C(Cn1cnc2cccnc21)N1CCN(c2sc(C(F)(F)F)nc2-c2nc3ccccc3[nH]2)CC1` [Example 226, 1-{4-[4-(1H-Benzoimidazol-2-yl)-2-trifluoromethyl-thiazol-5-yl]-piperazin-1-yl}-2-imidazo[4,5-b]pyridin-3-yl-ethanone] were 1 nM and 363 nM.
As for `Cc1nc(C)n(CC(=O)N2CCN(c3sc(C(F)(F)F)nc3-c3nc4ccccc4[nH]3)C[C@H]2CN(C)C)n1` [Example 227, 1-{(R)-4-[4-(1H-Benzoimidazol-2-yl)-2-trifluoromethyl-thiazol-5-yl]-2-dimethylaminomethyl-piperazin-1-yl}-2-(3,5-dimethyl-[1,2,4]triazol-1-yl)-ethanone], the IC50 on human CXCR3A is 8 nM; on CXCR3, 69 nM.
Consider `CN(C)C[C@@H]1CN(c2sc(C(F)(F)F)nc2-c2nc3ccccc3[nH]2)CCN1C(=O)Cn1cnc2cccnc21` [Example 228, 1-{(R)-4-[4-(1H-Benzoimidazol-2-yl)-2-trifluoromethyl-thiazol-5-yl]-2-dimethylaminomethyl-piperazin-1-yl}-2-imidazo[4,5-b]pyridin-3-yl-ethanone], for which the IC50 turned out to be 4 nM at human CXCR3A and 12 nM on CXCR3.
`CN(C)C[C@@H]1CN(c2scnc2-c2nc3ccccc3[nH]2)CCN1C(=O)Cn1cnc2cccnc21` [Example 229, 1-{(R)-4-[4-(1H-Benzoimidazol-2-yl)-thiazol-5-yl]-2-dimethylaminomethyl-piperazin-1-yl}-2-imidazo[4,5-b]pyridin-3-yl-ethanone]: the IC50 on human CXCR3A came out at 1 nM; on CXCR3, 98 nM.
